# In patent publication US4620871A (priority 1980, dated 1986):
# Legend:
# Pannonia vine variety = test: Berry yield and sugar content of vine, Pannonia (Example 33); assay type: in vivo; details: for Berry yield: 3 x 2 kg/ha, control 216; for Sugar content: control 13.0; for Sugar yield: control 28.08
# Protocol: (§1) Vine stands were sprayed with the compositions according to the invention to examine their effects exerted on the berry yield and sugar content. The compositions, diluted with water, were sprayed three times onto the plants. The first treatment was performed prior to flowering, the second one three weeks later, and the third one six weeks after the first one. The dose applied was 2 kg/ha in each of the treatments.
# (§2) Comparative tests were also performed with commonly used growth regulating compositions, i.e. CCC (chlorocholine chloride), Ethrel (or Etefon; 2-chloroethylphosphonic acid) and Nevirol (N-phenyl-phthalaiminic acid). The results were compared to those observed with the untreated controls.
# (§3) Two vine varieties, Pannonia and Egri leanyka, were involved in the tests.
# [1] = system: Egri leanyka vine variety; test: Berry yield and sugar content of vine, Egri leanyka (Example 33); assay type: in vivo; details: for Berry yield: 3 x 2 kg/ha, control 151.15; for Sugar content: control 16.7; for Sugar yield: control 18.93
# Protocol: as §1, §2, §3
# leaves of Pinto beans = test: Stimulation of carbon dioxide fixation, Pinto beans (Example 21); details: for Radioactivity A: A = in the light, control 2.14; for Radioactivity A / Radioactivity B / Radioactivity C / Stimulation: zeatin 20, kinetin/benzyladenine 30, others 200 ppm; for Radioactivity B: B = in the dark, control 0.18; for Radioactivity C: C = photosynthetic, control 2.32
# Protocol: The tests were performed on leaves of Pinto beans. The leaf segments were treated with an endogeneous cytokinin (zeatin), synthetic cytokinins (kinetin, benzyladenine) or with the compositions according to the invention, respectively, by floating the leaf segments on the solution of the test substance for 18 hours, thereafter the leaf segments were exposed to labelled carbon dioxide (activity: 100 μCi/5000 ml of ^14 CO2) for 0.5 hours.
# Tobacco callus = test: Growth of tobacco callus vs kinetin (Example 14); assay type: cell-based; details: 2 ppm active agent; for Dry weight of the callus / Speed of growth: kinetin 1 ppm; for activity at 2 ppm: Nicotiana tabacum, 504 h, kinetin 1 ppm = 100, read-out: Speed of growth, Index %
# Protocol: An untreated culture medium served as control. Tobacco callus was grown on the treated and untreated culture media (incubation period: 3 weeks), and the daily growth, the increase in cell number and the frequency of mitosis were measured according to the method of Skoog.
# The test described in Example 13 was repeated so that a culture medium containing 1 ppm of kinetin was used as control, and the compositions according to the invention were applied in amounts corresponding to 2 ppm of active agent.
# Pinto beans = test: Preservation of chlorophyll in Pinto beans (Example 17); assay type: in vivo; details: zeatin 20 ppm, kinetin/benzyladenine 30 ppm, others 200 ppm; for Extinction: 665 mμ, 200 mg fresh weight, 2 weeks
# Protocol: Endogeneous and synthetic cytokinins were applied as comparative substances. Solutions with varying concentrations, but always more dilute than 10^-4 moles, were applied in the tests.
# The tests were performed on Pinto beans. The plants were treated with an endogenous cytokinin (zeatine), synthetic cytokinins (kinetin, benzyladenine) or cytokinin-like compounds, respectively, and the chlorophyll content of the leaves was determined 2 weeks after the treatment by measuring the extinction of the extract of the leaves at 665 mμ.
# leaves of Pinto bean [2] = test: Stimulation of photolytic activity, HTO, Pinto bean (Example 23); details: 18 hours, zeatin 20, kinetin/benzyladenine 30, others 200 ppm; for Photolytic activity: control 7.64
# Protocol: The stimulating effects of an endogeneous cytokinin (zeatin), synthetic cytokinins (kinetin, benzyladenine) and the cytokinin-like regulators according to the invention exerted on the photolytic activity connected to the decomposition of HTO were examined on leaves of Pinto bean. The leaf discs were floated for 18 hours on solutions of the substances under examination, and then exposed to a radioactivity of 200 μCi/100 ml for one hour to effect photolysis of HTO.
# leaves of Pinto bean [3] = test: Protein synthesis, glycine-2-14C incorporation in Pinto bean leaves (Example 19); details: 18 hours, zeatin 20 ppm, kinetin/benzyladenine 30 ppm, others 200 ppm; for Radioactivity of the TCA-insoluble fraction: control 3.17
# Protocol: The tests were performed on leaves of Pinto bean. The leaf segments were treated with an endogeneous cytokinin (zeatin), synthetic cytokinins (kinetin, benzyladenine) or with the compositions according to the invention, respectively, by floating the leaf segments on the solution of the test substance for 18 hours. Thereafter the leaf segments were exposed to a labelled amino acid (glycine-2-^14 C) for 3 hours, and the incorporation of the amino acid was determined by radiometry.
# Pinto bean = test: Stimulation of membrane activity (nitrate uptake), Pinto bean (Example 25); assay type: in vivo; details: zeatin 20, kinetin/benzyladenine 30, others 200 ppm; for Protein nitrogen / Total nitrogen: 2 weeks; for Protein nitrogen: control 2.4; for Total nitrogen: control 3.8; for Protein nitrogen content in % of the total nitrogen content: control 63
# Protocol: The tests were performed on Pinto bean. The plants were treated with solutions of an endogeneous cytokinin (zeatin), synthetic cytokinins and membraneactive regulators according to the invention, respectively, and the leaves of the plants were analyzed 2 weeks after the treatment.
# Soybean = test: Total and protein nitrogen content of soybean (Example 39); assay type: in vivo; details: for Protein nitrogen content: control 1.9; for Total nitrogen content: control 2.6; for Protein nitrogen content, increase / Total nitrogen content, increase: in vivo
# From the text: The effects of 1,4-dihydroxyphthalazine and salts thereof exerted on the total nitrogen content and protein nitrogen content of soybean were examined as described in Example 27. The plants were sprayed with the compositions according to the invention at the beginning of the flowering of the apical cluster.
# [4] = system: callus isolated from Datura innoxia Mill. roots; test: Growth of callus isolated from Datura innoxia Mill. roots (Example 15); assay type: cell-based; details: with kinetin (2 ppm)
Structure (SMILES),"Sugar content, increase (Pannonia vine variety) [%]",Berry yield (Pannonia vine variety) [q/ha],Sugar content (Pannonia vine variety) [%],Sugar yield (Pannonia vine variety) [q/ha],Berry yield [1] [q/ha],Sugar content [1] [%],Sugar yield [1] [q/ha],Radioactivity A (leaves of Pinto beans) [dpm/200 mg fresh weight],Radioactivity B (leaves of Pinto beans) [dpm/200 mg fresh weight],Radioactivity C (leaves of Pinto beans) [dpm/200 mg fresh weight],Stimulation (leaves of Pinto beans) [%],Extinction (Pinto beans),Promotion (Pinto beans) [%],Stimulation (leaves of Pinto bean [2]) [%],Photolytic activity (leaves of Pinto bean [2]),Radioactivity of the TCA-insoluble fraction (leaves of Pinto bean [3]),Protein nitrogen (Pinto bean),Total nitrogen (Pinto bean),"Protein nitrogen, stimulation (Pinto bean) [%]",Protein nitrogen content in % of the total nitrogen content (Pinto bean) [%],further results
"O=P(O)(O)CCCl [Ethrel, 2-chloroethylphosphonic acid]",7.5,194,14.0,27.2,164.61,15.7,19.38,,,,,,,,,,,,,,"Berry yield, increase [1]: 8.9%; Sugar yield, increase [1]: 2.3%"
"N=C(N)N.Oc1nnc(O)c2ccccc12 [1,4-Dihydroxy-phthalazine monoguanidine salt]",,,,,,,,3.75,0.28,3.47,50.7,,,,,,,,,,
CCCn1cnc2ccccc21 [N--(n-Propyl)-benzimidazolium chloride],,,,,,,,,,,,,,,,,,,,,Dry weight of the callus (Tobacco callus): 194.09 mg; Speed of growth (Tobacco callus): 116.89; activity at 2 ppm (Tobacco callus): 119%
"c1ccc(CNc2ncnc3[nH]cnc23)cc1 [Benzyladenine, benzyladenine]",,,,,,,,4.87,0.41,5.28,128.0,1.229,83.1,125,17.21 dpm/mg of glucose,5.92 1000 dpm/200 mg fresh weight,2.8 % of dry weight,3.8 % of dry weight,16.6,73,Stimulation (leaves of Pinto bean [3]): 87.0%
"NN.Oc1nnc(O)c2ccccc12 [1,4-Dihydroxyphthalazine hydrazine salt]",,,,,,,,,,,,,,,,,,,,,"Protein nitrogen content (Soybean): 3.1 % of dry substance; Total nitrogen content (Soybean): 3.7 % of dry substance; Protein nitrogen content, increase (Soybean): 63.2%; Total nitrogen content, increase (Soybean): 42.4%"
"O=C(O)c1ccccc1C(=O)Nc1ccccc1 [Nevirol, N-phenyl-phthalaiminic acid]",18.4,238,15.4,36.52,169.22,16.4,20.81,,,,,,,,,,,,,,"Sugar yield, increase (Pannonia vine variety): 30%; Berry yield, increase [1]: 11.9%; Sugar yield, increase [1]: 9.9%"
C/C(=C\CNc1ncnc2[nH]cnc12)CO [Zeatin],,,,,,,,5.12,0.46,5.58,140.8,1.283,91.3,108,15.94 dpm/mg of glucose,6.18 1000 dpm/200 mg fresh weight,2.8 % of dry weight,3.8 % of dry weight,16.6,73,"stimulation of CO2 fixation, comparison in words (leaves of Pinto beans): the most potent stimulating agent; activation at 20 ppm (leaves of Pinto bean [3]; read-out: Stimulation): 95.1%"
c1coc(CNc2ncnc3[nH]cnc23)c1 [Kinetin],,,,,,,,4.15,0.37,4.52,95.2,1.120,66.0,82,13.96 dpm/mg of glucose,5.36 1000 dpm/200 mg fresh weight,2.8 % of dry weight,3.8 % of dry weight,16.6,73,"Dry weight of the callus (Tobacco callus): 174.11 mg; Speed of growth (Tobacco callus): 97.17; activity at 2 ppm (Tobacco callus): 100%; Dry substance [4]: 3.52%; Dry weight of the callus [4]: 175.06 mg; Fresh weight of the callus [4]: 4.9694 g; Growth, dry weight [4]: 15.56; Growth, fresh weight [4]: 15.56; Speed of growth [4]: 98.28 mg/day; Stimulation (leaves of Pinto bean [3]): 69.4%"
"C[N+](C)(C)CCCl.[Cl-] [CCC, 2-chloroethyltrimethyl-ammonium chloride]",23.0,175,16.0,28.0,144.61,17.0,18.44,,,,,,,,,,,,,,
"NN.NN.Oc1nnc(O)c2ccccc12 [1,4-Dihydroxyphthalazine dihydrazine salt]",,,,,,,,,,,,,,,,,,,,,"Protein nitrogen content (Soybean): 3.6 % of dry substance; Total nitrogen content (Soybean): 3.9 % of dry substance; Protein nitrogen content, increase (Soybean): 89.5%; Total nitrogen content, increase (Soybean): 50.0%"
